In BindingDB's records for doi:10.1016/j.ejmech.2019.111668 (Yantai University, 2019):

Experiments:
[1] = Reversal of P-gp-mediated multidrug resistance in human KBV cells assessed as potentiation of paclitaxel-induced cytotoxicity by measuring paclitaxel IC50 at 5 uM after 72 hrs by MTT assay (Rvb = 352.31 +/- 10.9 nM)
[2] = Reversal of P-gp-mediated multidrug resistance in human KBV cells assessed as potentiation of vincristine-induced cytotoxicity by measuring vincristine IC50 at 5 uM after 72 hrs by MTT assay (Rvb = 2.92 +/- 0.31 nM)
[3] = Reversal of P-gp-mediated multidrug resistance in human KBV cells assessed as potentiation of irinotecan-induced cytotoxicity by measuring irinotecan IC50 at 10 uM after 72 hrs by MTT assay (Rvb = 49.2 +/- 0.46 nM)
[4] = Reversal of P-gp-mediated multidrug resistance in human KBV cells assessed as potentiation of paclitaxel-induced cytotoxicity by measuring paclitaxel IC50 at 10 uM after 72 hrs by MTT assay (Rvb = 352.31 +/- 10.9 nM)
[5] = Reversal of P-gp-mediated multidrug resistance in human KBV cells assessed as potentiation of vincristine-induced cytotoxicity by measuring vincristine IC50 at 10 uM after 72 hrs by MTT assay (Rvb = 2.92 +/- 0.31 nM)
[6] = Reversal of P-gp-mediated multidrug resistance in human KBV cells assessed as potentiation of irinotecan-induced cytotoxicity by measuring irinotecan IC50 at 5 uM after 72 hrs by MTT assay (Rvb = 49.2 +/- 0.46 nM)

Work on `CC(=O)O[C@H]1C[C@@]2(C)[C@@H](C[C@@H](O)[C@H]3[C@@]4(C)CC[C@@H](O)[C@@H](C)[C@@H]4CC[C@@]32C)/C1=C(\CCC=C(C)C)C(=O)OCc1ccccc1` yielded an IC50 [1] of 17 nM, an IC50 [2] of 144 nM and an IC50 [3] of 16.2 µM. For the same compound, the IC50 [4] was 7 nM, the IC50 [5] was 92 nM and the IC50 [6] was 37.2 µM.
